From patent US7524852B2, “Bicyclic pyrimidine derivatives” (Kyowa Hakko Kogyo Co., Ltd., priority 2002, dated 2009) come the findings set out here.

The structures appear in SMILES notation.

This test deals with Hut78 cells. Put plainly: Inhibitory activity on binding of [125I]-TARC to Hut78 cells. The conditions noted are these: [125I]-TARC binding to Hut78 cells; test compound at 1 μmol/L. As to the method: The RPMI-1640 medium (Sigma-Aldrich Japan) containing 20 mmol/L HEPES [4-(2-hydroxyethyl)-1-piperazinylethanesulfonic acid; HEPES, Nacalai Tesque, Inc.] and 0.1 w/v % bovine serum albumin (SEIKAGAKU CORPORATION) was adjusted to pH 7.0 with sodium hydrogen carbonate (Wako Pure Chemical Industries, Ltd.) to yield a binding/wash buffer. In a 96-well round-bottomed plate (Corning Costar Corporation) were placed 60 μL of a suspension of Hut78 cells (ATCC No. TIB-161) ([…] cells) in the binding/wash buffer, 20 μL of a solution of a test compound and 20 μL of a solution of 810 Bq of [^125I]-TARC (Amersham Biosciences K.K.) diluted with the binding/wash buffer up to the total aliquot of 100 μL, followed by reaction at room temperature for two hours. The solution of the test compound had been prepared by dissolving the test compound in dimethyl sulfoxide (Nacalai Tesque, Inc.) to a concentration of 10 mmol/L, and diluting the solution with the binding/wash buffer to a series of concentrations. The nonspecific binding was determined by a binding assay in the presence of a sufficient amount of unlabeled TARC. The total binding was defined as a binding in the case where dimethyl sulfoxide (Nacalai Tesque, Inc.) was added, instead of the test compound, in the same concentration (0.1 v/v %). […] Microscinti 20 (Packard BioScience Company) was placed in each well at 50 μL/well, and the radioactivity on the glass filter was determined using Topcount NXT™ (Packard BioScience Company). The binding inhibitory rates (%) of the test compounds were determined by calculation according to the following equation:
[formula] Total binding: [^125I]-TARC binding radioactivity without addition of the test compound Binding upon addition of test compound: [^125I]-TARC binding radioactivity at respective concentration upon addition of test compound Nonspecific binding: [^125I]-TARC binding radioactivity upon addition of unlabeled TARC
As to `CCNC(=O)N1CCc2nc(N3CCN(C[C@@H]4CN(C)CCO4)CC3)nc(NCc3ccc(Cl)cc3Cl)c2C1` [Compound 15-47], the “The Binding Inhibitory Rates at 1 μmol/L” value was determined as 96.
As for `CCCNC(=O)N1CCc2nc(N3CCN(CC4CN(C)CCO4)CC3)nc(NCc3ccc(Cl)cc3Cl)c2C1` (stereo not drawn) [Compound 15-54], the “The Binding Inhibitory Rates at 1 μmol/L” value was found to be 97.
With `CCCNC(=O)N1CCc2nc(N3CCN(CC4CN(C)CCO4)CC3)nc(NCc3ccc(Cl)cc3Cl)c2C1` (stereo not drawn) [Compound 15-59] the figure was 90.
